From ChEMBL document CHEMBL3526058, “Investigating the enteroenteric recirculation of apixaban, a factor Xa inhibitor: administration of activated charcoal to bile duct-cannulated rats and dogs receiving an intravenous dose and use of drug transporter knockout rats” (Drug Metab Dispos, 2013)

What was measured:
[1] = Drug recovery in urine of bile duct-cannulated BCRP-knockout Sprague-Dawley rat at 2 mg/kg, iv measured up to 24 hrs; type: ADME, organism-based; parameters: dose 2 mg/kg, route intravenous; conditions: read-out: Drug recovery
[2] = Drug recovery in bile of bile duct-cannulated Sprague-Dawley rat at 2 mg/kg, iv measured up to 24 hrs; type: ADME, organism-based; parameters: dose 2 mg/kg, route intravenous; conditions: read-out: Drug recovery
[3] = tested on: Rattus norvegicus; test: Metabolism and biliary clearance in P-gp-knockout Sprague-Dawley rat at 2 mg/kg, iv relative to total clearance; type: ADME, organism-based, Bile; parameters: dose 2 mg/kg, route intravenous; conditions: in vivo
[4] = tested on: Rattus norvegicus; test: Renal clearance in wild-type bile duct-cannulated Sprague-Dawley rat at 2 mg/kg, iv administered 0.125 hr post GF-120918 treatment relative to total clearance; type: ADME, organism-based, Kidney; parameters: dose 2 mg/kg, route intravenous; conditions: in vivo
[5] = Drug recovery in urine of bile duct-cannulated beagle dog at 1 mg/kg, iv administered as 5 mins infusion followed by activated charcoal administration 10 to 420 mins post compound measured up to 72 hrs; type: ADME, organism-based, Canis lupus familiaris; parameters: dose 1 mg/kg, route intravenous; conditions: read-out: Drug recovery
[6] = tested on: Rattus norvegicus; test: Metabolism and biliary clearance at 8 hrs in wild-type bile duct-cannulated Sprague-Dawley rat at 2 mg/kg, iv administered 0.125 hr post GF-120918 treatment; type: ADME, organism-based; parameters: dose 2 mg/kg, route intravenous; conditions: in vivo
[7] = Cmax in wild-type bile duct-cannulated Sprague-Dawley rat at 2 mg/kg, iv; type: ADME, organism-based; parameters: dose 2 mg/kg, route intravenous; conditions: in vivo
[8] = tested on: Rattus norvegicus; test: Metabolism and biliary clearance at 8 hrs in wild-type bile duct-cannulated Sprague-Dawley rat at 2 mg/kg, iv administered 0.125 hr post GF-120918 treatment relative to total clearance; type: ADME, organism-based; parameters: dose 2 mg/kg, route intravenous; conditions: in vivo
[9] = Renal clearance in bile duct-cannulated beagle dog at 1 mg/kg, iv administered as 5 mins infusion followed by activated charcoal administration 10 to 420 mins post compound dosing; type: ADME, organism-based, Canis lupus familiaris, Kidney; parameters: dose 1 mg/kg, route intravenous; conditions: in vivo
[10] = tested on: Rattus norvegicus; test: Renal clearance in wild-type bile duct-cannulated Sprague-Dawley rat at 2 mg/kg, iv relative to total clearance; type: ADME, organism-based, Kidney; parameters: dose 2 mg/kg, route intravenous; conditions: in vivo
[11] = Half life in bile duct-cannulated beagle dog at 1 mg/kg, iv administered as 5 mins infusion followed by activated charcoal administration 10 to 420 mins post compound dosing; type: ADME, organism-based, Canis lupus familiaris; parameters: dose 1 mg/kg, route intravenous; conditions: in vivo
[12] = Drug recovery in feces of bile duct-cannulated Sprague-Dawley rat at 2 mg/kg, iv measured up to 24 hrs; type: ADME, organism-based; parameters: dose 2 mg/kg, route intravenous; conditions: read-out: Drug recovery
[13] = tested on: Canis familiaris; test: AUC (0 to infinity) in bile duct-cannulated beagle dog at 1 mg/kg, iv administered as 5 mins infusion followed by activated charcoal administration 10 to 420 mins post compound dosing; type: ADME, organism-based, Canis lupus familiaris; parameters: time infinity, dose 1 mg/kg, route intravenous; conditions: in vivo
[14] = tested on: Canis familiaris; test: Metabolism and biliary clearance in bile duct-cannulated beagle dog at 1 mg/kg, iv administered as 5 mins infusion followed by activated charcoal administration 10 to 420 mins post compound dosing; type: ADME, organism-based, Canis lupus familiaris; parameters: dose 1 mg/kg, route intravenous; conditions: in vivo
[15] = AUC (0 to infinity) in BCRP-knockout Sprague-Dawley rat at 2 mg/kg, iv; type: ADME, organism-based; parameters: time infinity, dose 2 mg/kg, route intravenous; conditions: plasma
[16] = tested on: Rattus norvegicus; test: Renal clearance in P-gp-knockout Sprague-Dawley rat at 2 mg/kg, iv relative to total clearance; type: ADME, organism-based, Kidney; parameters: dose 2 mg/kg, route intravenous; conditions: in vivo
[17] = tested on: Canis familiaris; test: AUC (0 to infinity) in bile duct-cannulated beagle dog at 1 mg/kg, iv administered as 5 mins infusion; type: ADME, organism-based, Canis lupus familiaris; parameters: time infinity, dose 1 mg/kg, route intravenous; conditions: in vivo
[18] = Renal clearance in P-gp-knockout Sprague-Dawley rat at 2 mg/kg, iv; type: ADME, organism-based, Kidney; parameters: dose 2 mg/kg, route intravenous; conditions: in vivo
[19] = Renal clearance in bile duct-cannulated beagle dog at 1 mg/kg, iv administered as 5 mins infusion; type: ADME, organism-based, Canis lupus familiaris, Kidney; parameters: dose 1 mg/kg, route intravenous; conditions: in vivo
[20] = Renal clearance in wild-type bile duct-cannulated Sprague-Dawley rat at 2 mg/kg, iv; type: ADME, organism-based, Kidney; parameters: dose 2 mg/kg, route intravenous; conditions: in vivo
[21] = Plasma protein binding in beagle dog; type: ADME, cell-free, Canis lupus familiaris; conditions: read-out: PPB (converted)
[22] = Volume of distribution at steady state in wild-type 30 mins activated charcoal pre-treated bile duct-cannulated Sprague-Dawley rat at 2 mg/kg, iv followed by activated charcoal administration 5 to 180 mins post compound dosing; type: ADME, organism-based; parameters: dose 2 mg/kg, route intravenous; conditions: in vivo, read-out: Vdss
[23] = Cmax in wild-type bile duct-cannulated Sprague-Dawley rat at 2 mg/kg, iv administered 0.125 hr post GF-120918 treatment; type: ADME, organism-based; parameters: dose 2 mg/kg, route intravenous; conditions: in vivo, with GF-120918
[24] = Drug recovery in bile of 30 mins activated charcoal pre-treated bile duct-cannulated Sprague-Dawley rat at 2 mg/kg, iv followed by activated charcoal administration 5 to 180 mins post compound dosing measured up to 48 hrs; type: ADME, organism-based; parameters: dose 2 mg/kg, route intravenous; conditions: read-out: Drug recovery
[25] = Drug recovery in bile of bile duct-cannulated BCRP-knockout Sprague-Dawley rat at 2 mg/kg, iv measured up to 24 hrs; type: ADME, organism-based; parameters: dose 2 mg/kg, route intravenous; conditions: read-out: Drug recovery
[26] = Half life in wild-type bile duct-cannulated Sprague-Dawley rat at 2 mg/kg, iv; type: ADME, organism-based; parameters: dose 2 mg/kg, route intravenous; conditions: in vivo
[27] = Renal clearance in BCRP-knockout Sprague-Dawley rat at 2 mg/kg, iv; type: ADME, organism-based, Kidney; parameters: dose 2 mg/kg, route intravenous; conditions: in vivo
[28] = Drug recovery in urine of bile duct-cannulated beagle dog at 1 mg/kg, iv administered as 5 mins infusion measured up to 72 hrs; type: ADME, organism-based, Canis lupus familiaris; parameters: dose 1 mg/kg, route intravenous; conditions: read-out: Drug recovery
[29] = tested on: Canis familiaris; test: Intestinal clearance in bile duct-cannulated beagle dog at 1 mg/kg, iv administered as 5 mins infusion followed by activated charcoal administration 10 to 420 mins post compound dosing; type: ADME, organism-based, Canis lupus familiaris; parameters: dose 1 mg/kg, route intravenous; conditions: in vivo
[30] = Volume of distribution at steady state in bile duct-cannulated beagle dog at 1 mg/kg, iv administered as 5 mins infusion followed by activated charcoal administration 10 to 420 mins post compound dosing; type: ADME, organism-based, Canis lupus familiaris; parameters: dose 1 mg/kg, route intravenous; conditions: in vivo, read-out: Vdss
[31] = Mean residence time in wild-type bile duct-cannulated Sprague-Dawley rat at 2 mg/kg, iv administered 0.125 hr post GF-120918 treatment; type: ADME, organism-based; parameters: dose 2 mg/kg, route intravenous; conditions: in vivo, with GF-120918
[32] = Drug recovery in feces of bile duct-cannulated beagle dog at 1 mg/kg, iv administered as 5 mins infusion followed by activated charcoal administration 10 to 420 mins post compound measured up to 72 hrs; type: ADME, organism-based, Canis lupus familiaris; parameters: dose 1 mg/kg, route intravenous; conditions: in vivo
[33] = Half life in BCRP-knockout Sprague-Dawley rat at 2 mg/kg, iv; type: ADME, organism-based; parameters: dose 2 mg/kg, route intravenous; conditions: in vivo
[34] = Drug recovery in feces of bile duct-cannulated beagle dog at 1 mg/kg, iv administered as 5 mins infusion measured up to 72 hrs; type: ADME, organism-based, Canis lupus familiaris; parameters: dose 1 mg/kg, route intravenous; conditions: read-out: Drug recovery
[35] = tested on: Canis familiaris; test: Metabolism and biliary clearance in bile duct-cannulated beagle dog at 1 mg/kg, iv administered as 5 mins infusion; type: ADME, organism-based, Canis lupus familiaris; parameters: dose 1 mg/kg, route intravenous; conditions: in vivo
[36] = Half life in wild-type bile duct-cannulated Sprague-Dawley rat at 2 mg/kg, iv administered 0.125 hr post GF-120918 treatment; type: ADME, organism-based; parameters: dose 2 mg/kg, route intravenous; conditions: in vivo, with GF-120918
[37] = tested on: Rattus norvegicus; test: Metabolism and biliary clearance in BCRP-knockout Sprague-Dawley rat at 2 mg/kg, iv; type: ADME, organism-based, Bile; parameters: dose 2 mg/kg, route intravenous; conditions: in vivo
[38] = tested on: Rattus norvegicus; test: Renal clearance in BCRP-knockout Sprague-Dawley rat at 2 mg/kg, iv relative to total clearance; type: ADME, organism-based, Kidney; parameters: dose 2 mg/kg, route intravenous; conditions: in vivo
[39] = tested on: Rattus norvegicus; test: Metabolism and biliary clearance in wild-type 30 mins activated charcoal pre-treated bile duct-cannulated Sprague-Dawley rat at 2 mg/kg, iv followed by activated charcoal administration 5 to 180 mins post compound dosing; type: ADME, organism-based; parameters: dose 2 mg/kg, route intravenous; conditions: in vivo
[40] = Mean residence time in bile duct-cannulated beagle dog at 1 mg/kg, iv administered as 5 mins infusion followed by activated charcoal administration 10 to 420 mins post compound dosing; type: ADME, organism-based, Canis lupus familiaris; parameters: dose 1 mg/kg, route intravenous; conditions: in vivo
[41] = tested on: Canis familiaris; test: Intestinal clearance in bile duct-cannulated beagle dog at 1 mg/kg, iv administered as 5 mins infusion followed by activated charcoal administration 10 to 420 mins post compound dosing relative to total clearance; type: ADME, organism-based, Canis lupus familiaris; parameters: dose 1 mg/kg, route intravenous; conditions: in vivo
[42] = Drug recovery in feces of 30 mins activated charcoal pre-treated bile duct-cannulated Sprague-Dawley rat at 2 mg/kg, iv followed by activated charcoal administration 5 to 180 mins post compound dosing measured up to 48 hrs; type: ADME, organism-based; parameters: dose 2 mg/kg, route intravenous; conditions: read-out: Drug recovery
[43] = tested on: Canis familiaris; test: Clearance in bile duct-cannulated beagle dog at 1 mg/kg, iv administered as 5 mins infusion; type: ADME, organism-based, Canis lupus familiaris; parameters: dose 1 mg/kg, route intravenous; conditions: in vivo

dose excreted at 24 h [1]: 35.5%
dose excreted at 24 h [2]: 10.7%
CL [3]: 33%
CL [4]: 50%
dose excreted [5]: 8.1%
CL [6]: 4.17 mL/min/kg
Cmax [7]: 2260 ng/mL
CL [8]: 36%
CL renal [9]: 0.122 mL/min/kg
CL [10]: 51%
half-life [11]: 1.8 h
dose excreted at 24 h [12]: 21.1%
AUC [13]: 5600 ng·h/mL
CL [14]: 0.192 mL/min/kg
AUC(0-inf) [15]: 2340 ng·h/mL
CL [16]: 43%
AUC [17]: 9300 ng·h/mL
CL renal [18]: 6.5 mL/min/kg
CL renal at 5 min [19]: 0.0907 mL/min/kg
CL renal [20]: 11.8 mL/min/kg
fraction unbound [21]: 0.08
Vd [22]: 1.2 L/kg
Cmax [23]: 1970 ng/mL
dose excreted [24]: 15.7%
dose excreted at 24 h [25]: 12.7%
half-life [26]: 1.2 h
CL renal [27]: 5 mL/min/kg
dose excreted [28]: 13.5%
CL [29]: 0.52 mL/min/kg
Vd [30]: 0.2 L/kg
MRT [31]: 1.7 h
Drug recovery [32]: 62.7%
half-life [33]: 2.1 h
dose excreted [34]: 42.7%
CL [35]: 0.288 mL/min/kg
half-life [36]: 2.8 h
CL [37]: 4.33 mL/min/kg
CL [38]: 33%
CL [39]: 11.2 mL/min/kg
MRT [40]: 1.9 h
CL [41]: 62%
dose excreted [42]: 28.8%
CL [43]: 0.667 mL/min/kg
SMILES: COc1ccc(-n2nc(C(N)=O)c3c2[14C](=O)N(c2ccc(N4CCCCC4=O)cc2)CC3)cc1
